Laboratory results from patent US20240092779A1, “USP1 INHIBITORS AND USES THEREOF” (Zentaur Therapeutics USA Inc., priority 2022, published 2024).

What was measured:
[1] = test system: HCC1806 Ub-PCNA (USP1); assay: USP1 Western Blot Protocol (HCC1806 Ub-PCNA); type: cell-based; conditions: Homo sapiens, HCC1806 cells, 4 hours
Description: USP1 Western Blot Protocol (HCC1806 Ub-PCNA)
USP1 is a deubiquitinase that catalyze the hydrolysis of iso-peptide bond between ubiquitin and the substrate proteins. Inhibition of USP1 activity results in accumulation of mono-ubiquitinated substrate such as Ub-PCNA. A cell assay was set up to determine the cellular potency of USP1 compounds by monitoring the accumulation of Ub-PCNA. The signal intensity was detected by a specific Ub-PCNA antibody through Western-blot analysis.
The assay was initiated by seeding HCC1806 cells (ATCC, CRL-2335) into 6-well plates (Corning, 3516), with a seeding density of 3×10^5 cells per well and 2 mL RPMI 1640 culture medium (Gibco, 11875119). The plates were incubated overnight at 37° C. and 5% CO2. Compounds, solubilized in DMSO (Solarbio, D8371) as 1 mM stock solution, were diluted in 4-fold steps for 5-cencentration point dose response plus a no-compound DMSO control. Diluted compounds (2 μL) were transferred into assay wells (with a final DMSO concentration of −0.1%) and the resulted assay plates incubated at 37° C. and 5% CO2 for 4 hours. After aspiration of culture medium, 100 μL of 4° C. RIPA lysis buffer (Boston BioProducts, BP-115D) supplemented with vendor recommended concentrations of protease (Roche, 4693116001) and phosphatase (Roche, 4906837001) inhibitor, was added to each well and incubated for 10 minutes on the ice. Cells were scrapped loose from the bottom of well with a scraper (Corning, 3008), transferred into a 600 μL EP tube, sonicated using Ultrasound (Qsonica, Q800R3, with 30% energy, 5-second pulse on/off cycles at 4° C., for total 2 minutes), centrifuged 13,000 rpm for 15 minutes at 4° C., and then the supernatant transferred to a new 600 μL EP tube. The total protein concentration was determined using BCA kit following vendor recommended protocol (Solarbio, PC0020-500). Loading samples were prepared by diluting the total protein concentration to 1.5 μg/μL with 5 X NuPAGE SDS loading buffer (Beyotime, P0015L) and RIPA lysis buffer, and boiling at 100° C. for 5 minutes.
15 μg protein from each sample was loaded onto NuPAGE® Novex 4-12% Bis-Tris Midi Gel, 26 W (Invitrogen, WG1403BOX) and electrophoresis was run at 80 V for 30 minutes and 120 V till the end using 1x NuPAGE® MOPS SDS Running Buffer (Novex, NP0001). The gel was then transferred to nitrocellulose membrane using the dry transfer system (iBlot 2 Transfer Stacks, nitrocellulose, D323001) with a program consisting of 20 V for 1 minute, 23 V for 4 minutes and 25 V for 2 minutes. After the membrane was blocked with 5% BSA (Solarbio, A8020) in 1X TBST (CST, 9997S) for 1 hour at room temperature, specific antibodies (Ubiquityl-PCNA antibody (CST, 13439) at 1:500 dilution, PCNA antibody (Santa Cruz, sc-56) at 1:1000 dilution, and GAPDH (CST, 5174) at 1:2000 dilution in 1 X TBST containing 1% BSA) were added and incubated at room temperature for 1.5 hours. After washing the Nitrocellulose membranes with 1 X TBST for 3 times, 10 minutes each time at room temperature, fluorescently labeled secondary antibodies (anti-rabbit IgG, Licor, 926-32211; anti-mouse IgG, LI-COR, 926-68070) at 1:5000 dilution in 1 X TBST containing 1% BSA were added and incubated for 1 hour at room temperature in the dark. The membranes were then rinsed with 1 X TBST and immersed in the RO water. Imaging of band intensity was acquired with Li—COR imaging system (Li—COR, Odyssey clx ES).
Percentage of USP1 inhibition (% Vehicle) was calculated by using following equation examining Ub-PCNA upregulation:
And IC50 was calculated using four-parameter logistic fitting program • Y=Bottom+(Top-Bottom)/(1+10 {circumflex over (()}(LogIC50−X)*Hill Slope)) • X=Log of dose or concentration
(§1) Certain compounds were tested in the assays.

[2] = test system: MDA-MB-436 cells; assay: CTG Protocol (MDA-MB-436 GI50), antiproliferative activity; type: cell-based, human; conditions: Homo sapiens, 168 h; MDA-MB-436 cells (BRCA1 mutation), 7-day incubation, CellTiter-Glo
Procedure: CTG Protocol (MDA-MB-436 GI50)
Antiproliferative activity of USP1 inhibitors was determined using breast cancer cell line MDA-MB-436 that harbors BRCA1 mutation. MDA-MB-436 cells (ATCC, HTB-130) was seeded with a seeding density of 1000 cells per well and 95 μL DMEM medium (Gibco, 10566016) into 96-well cell plates (Corning, 3610), and incubated overnight at 37° C. and 5% CO2. Compounds were solubilized in DMSO (Solarbio, D8371) as 10 mM stock solution, and then series diluted (3 folds) with DMSO for 9-point dose-response testing. The resulted series dilutions were then jump-diluted 50-fold by cell culture medium to afford the 20×stock solutions (containing 2% DMSO). Treatment was initiated by adding 5 μL of 20×stock solution to the assay plate and incubated at 37° C. and 5% CO2. At the end of 7-day incubation, cell assay plates were removed from incubation and equilibrated to room temperature (20 min). Then 100 μL of CellTiter-Glo (Promega, G9243) reagent, prepared per manufacturer's protocol, was added to each well, and the resulted plates were centrifuged 1,000 rpm for 1 minute, incubated at room temperature in the dark for 20 minutes, sealed with Perkin Elmer sticky film, and the luminescence signal read by Envision (Perkin Elmer).
Data analysis • a) % Inhibition was calculated using following equation: […]
X: compound concentration; Y: % Inhibition
as §1

[3] = Liver microsomal stability (HLM); type: in vitro ADME; conditions: human, liver microsomes, human liver microsomes 0.5 mg/mL, 1 μM compound, NADPH
Procedure: Liver Microsomal Stability
Certain Compounds of the Disclosure were assessed for ADME metabolic stability in human liver microsomes (HLM).
Samples were prepared by adding 222.5 μL of a master solution (100 mM phosphate buffer and 0.5 mg/mL liver microsomes (HLM)) and 25 μL of a 10 mM NADPH solution to incubation plates, which were then warmed for 10 min. Each compound was separately dissolved in DMSO to prepare 10 mM stock solutions, which were then diluted to 100 μM with acetonitrile. A reaction was started by adding 2.5 μL of the […] solution of each compound to separate incubation plates such that the final concentration of for each compound in each plate was 1 μM. Aliquots of 30 μL were taken from the reaction solution at 0.5, 5, 15, 30 and 60 minutes. The reaction was stopped by the addition of 5 volumes of cold acetonitrile with IS (100 nM alprazolam, 200 nM caffeine and 100 nM tolbutamide). Aliquot of 100 μL of the supernatant was diluted by 100 μL ultra-pure water, and the mixture was used for LC/MS/MS analysis. Peak areas were determined from extracted ion chromatograms. […]. The percentage of remaining parent was calculated from peak area of test compound or PC. The slope value, k, is determined by linear regression of the natural logarithm of percent parent remaining vs. incubation time curve. All calculations are carried out using Microsoft Excel.
The in vitro half-life (in vitro t1/2) is determined from the slope value:
Conversion of the in vitro t1/2 (in min) into the in vitro intrinsic clearance (in vitro CLint, (HLM Clint (μL/min/mg proteins))) is done using the following equation: […]
A: HLM Clint <10 μL/min/mg; B: 10 μL/min/mg≤HLM Clint <50 μL/min/mg; C: HLM Clint ≥50 μL/min/mg.

Structure (SMILES) | IC50 [1] | GI50 [2] | microsomal CLint at 1 μM [3]
[2H]C([2H])([2H])n1cc(C(F)(F)F)nc1-c1ccc(C([2H])([2H])n2c(=O)ccc3cnc(-c4c(OC)ncnc4C4CC4)nc32)cc1 [Compound I-37, 2-(4-Cyclopropyl-6-Methoxypyrimidin-5-Yl)-8-({4-[1-(2H3)Methyl-4-(Trifluoromethyl)Imidazol-2-Yl]Phenyl}(2H2)Methyl)Pyrido[2,3-d]Pyrimidin-7-One] | 10 to 100 nM | 10 to 100 nM | 10 to 50 µL/min/mg
COc1ncnc(C2CC2)c1-c1ncc2ccc(=O)n(Cc3ccc(-c4nc(C(F)(F)F)cn4C)cc3)c2n1 [Compound I-1, 2-(4-Cyclopropyl-6-Methoxypyrimidin-5-Yl)-8-({4-[1-Methyl-4-(Trifluoromethyl)Imidazol-2-Yl]Phenyl}Methyl)Pyrido[2,3-d]Pyrimidin-7-One] |  |  | 10 to 50 µL/min/mg
COc1ncnc(C2CC2)c1-c1cc2c(ccc(=O)n2Cc2ccc(-c3nc(C(F)(F)F)cn3C)cc2)cn1 [Compound I-11, 7-(4-Cyclopropyl-6-Methoxypyrimidin-5-Yl)-1-({4-[1-Methyl-4-(Trifluoromethyl)Imidazol-2-Yl]Phenyl}Methyl)-1,6-Naphthyridin-2-One] |  |  | 10 to 50 µL/min/mg
COc1ncnc(C2CC2)c1-c1ncc2ccc(=O)n(Cc3ccc(-c4nc(C(F)(F)F)cn4C4COC4)cc3)c2n1 [Compound I-59] |  |  | 10 to 50 µL/min/mg
[2H]C([2H])([2H])Oc1ncnc(C2CC2)c1-c1ncc2ccc(=O)n(C([2H])([2H])c3ccc(-c4nc(C(F)(F)F)cn4C([2H])([2H])[2H])cc3)c2n1 [Compound I-57] |  |  | 10 to 50 µL/min/mg
[2H]C([2H])([2H])n1cc(C(F)(F)F)nc1-c1ccc(Cn2c(=O)ccc3cnc(-c4c(OC)ncnc4C4CC4)nc32)cc1 [Compound I-31, 2-(4-Cyclopropyl-6-Methoxypyrimidin-5-Yl)-8-({4-[1-(2H3)Methyl-4-(Trifluoromethyl)Imidazol-2-Yl]Phenyl}Methyl)Pyrido[2,3-d]Pyrimidin-7-One] | 10 to 100 nM | < 10 nM | 10 to 50 µL/min/mg
CCc1ncnc(C2CC2)c1-c1ncc2ccc(=O)n(Cc3ccc(-c4nc(C(F)(F)F)cn4C)cc3)c2n1 [Compound 52, 2-(4-Cyclopropyl-6-Ethylpyrimidin-5-Yl)-8-({4-[1-Methyl-4-(Trifluoromethyl)Imidazol-2-Yl]Phenyl}Methyl)Pyrido[2,3-d]Pyrimidin-7-One] | 100 to 1000 nM | 100 to 1000 nM | 
COc1ncnc(C2CC2)c1-c1ncc2cc(-c3c(C)cnn3C)c(=O)n(Cc3ccc(-c4nc(C(F)(F)F)cn4C(C)C)cc3)c2n1 [Compound I-165, 2-(4-Cyclopropyl-6-Methoxypyrimidin-5-Yl)-6-(2,4-Dimethylpyrazol-3-Yl)-8-({4-[1-Isopropyl-4-(Trifluoromethyl)Imidazol-2-Yl]Phenyl}Methyl)Pyrido[2,3-d]Pyrimidin-7-One] | 10 to 100 nM | 10 to 100 nM | 
Cc1cnn(C(C)C)c1-c1ncc2ccc(=O)n(Cc3ccc(-c4nc(C(F)(F)F)cn4C)cc3)c2n1 [Compound I-45, 2-(2-isopropyl-4-methylpyrazol-3-yl)-8-({4-[1-methyl-4-(trifluoromethyl)imidazol-2-yl]phenyl}methyl)pyrido[2,3-d]pyrimidin-7-one] | 10 to 100 nM | 10 to 100 nM | 

Further lines, results first:

IC50 [1] | GI50 [2] | microsomal CLint at 1 μM [3] | Structure (SMILES)
 |  | 10 to 50 µL/min/mg | COc1ncnc(C2CC2)c1-c1ncc2ncc(=O)n(Cc3ccc(-c4nc(C(F)(F)F)cn4C)cc3)c2n1 [Compound I-17, 2-(4-cyclopropyl-6-methoxypyrimidin-5-yl)-8-({4-[1-methyl-4-(trifluoromethyl)imidazol-2-yl]phenyl}methyl) pteridin-7-one]
< 10 nM | 10 to 100 nM |  | COc1ncnc(C2CC2)c1-c1ncc2cc(-c3cnnn3C)c(=O)n(Cc3ccc(-c4nc(C(F)(F)F)cn4C4CC4)cc3)c2n1 [Compound I-159, 8-({4-[1-cyclopropyl-4-(trifluoromethyl)imidazol-2-yl]phenyl}methyl)-2-(4-cyclopropyl-6-methoxypyrimidin-5-yl)-6-(3-methyl-1,2,3-triazol-4-yl)pyrido[2,3-d]pyrimidin-7-one]
< 10 nM | 10 to 100 nM |  | COc1ncnc(C2CC2)c1-c1ncc2cc(-c3cncc(F)c3)c(=O)n(Cc3ccc(-c4nc(C(F)(F)F)cn4C4CC4)cc3)c2n1 [Compound I-162]
10 to 100 nM | 10 to 100 nM |  | COc1ncnc(C2CC2)c1-c1ncc2nc(-c3cn(C)cn3)c(=O)n(Cc3ccc(-c4nc(C(F)(F)F)cn4C4CC4)cc3)c2n1 [Compound I-160, 8-({4-[1-Cyclopropyl-4-(Trifluoromethyl)Imidazol-2-Yl]Phenyl}Methyl)-2-(4-Cyclopropyl-6-Methoxypyrimidin-5-Yl)-6-(1-Methylimidazol-4-Yl)Pteridin-7-One]
